In patent publication US20240158693A1, “Probe for Hydrogen Sulfide Detection, Method for Manufacturing Same, and Composition for Hydrogen Sulfide Detection, Comprising Same” (Korea Institute of Ocean Science &Technology, priority 2020, published 2024):
Counter-ions that a name gives are not always drawn.

What was measured:
HSA = HSA (Homo sapiens, UniProt P02768); experiment: Comparison of fluorescence change of KF and KF-DNBS with HSA; conditions: SPB pH 7.4, excitation 420 nm
Description: Stock solutions of KF and KF-DNBS were prepared in DMSO, and a stock solution of HSA was prepared in distilled water. Blanks, each containing only KF or KF-DNBS (25 μM, 10% DMSO), and samples, each containing KF or KF-DNBS (25 μM, 10% DMSO) with HSA (100 μM) in sodium phosphate buffer (SPB, pH 7.4, 20 mM), were prepared. Fluorescence spectra were then recorded using the fluorescence spectrophotometer under excitation at 420 nm.

[1] = Sensing behavior of KF-DNBS with HSA as selective H2S probe (H2S titration, LOD)
Description: The experiment was carried out in triplicate. The limit of detection (LOD) was calculated using 3σ/slope based on the titration experiment, in which σ was the standard deviation of the blank measurements and the slope value was obtained from a plot of the fluorescence intensity versus H2S concentration.

[2] = Selectivity of KF-DNBS toward H2S over other biological analytes
Description: Next, the selectivity of KF-DNBS with HSA toward H2S was investigated using various biologically relevant species, including biothiols (Cys, Hcy, and GSH), reactive sulfur species (RSS), and reactive oxygen species (ROS) (HSO4^−, SO4^2−, SO3^2−, S2O3^2−, SCN^−, H2O2, and ClO^−), and anions (CN^−, F^−, Br^−, NO3^−, NO2^−, HCO3^−, and CH3CO2^−).
A blank containing no analyte and a sample containing each analyte (H2S 100 μM, Cys 250 μM, Hcy 100 μM, GSH 10 μM, HSO4^− 100 μM, SO4^2− 100 μM, SO3^2− 100 μM, S2O3^2− 100 μM, SCN^− 100 μM, CN^− 100 μM, F^− 100 μM, Br^− 100 μM, NO3^− 100 μM, NO2^− 100 μM, HCO3^− 100 μM, CH3CO2^− 100 μM, H2O2 100 μM, ClO^− 100 μM) were prepared followed by the addition of HSA (100 μM) and 2-FBBA (2 mM) to SPB (pH 7.4, 20 mM). After incubation for 15 minutes at 25° C., KF-DNBS (25 μM, 10% DMSO) was added to each sample, and then fluorescence intensity at 500 nm was recorded using the fluorescence spectrophotometer under excitation at 420 nm at 37° C. The experiment was conducted in triplicate.

[3] = Optimization of sensing conditions for H2S detection (biothiols with and without 2-FBBA)
Description: The samples containing HSA (100 μM) and each biothiol (H2S 100 μM, Cys 250 μM, Hcy 100 μM, and GSH 10 μM) with and without 2-formyl benzene boronic acid (2-FBBA) in SPB (pH 7.4, 20 mM) were incubated for 15 minutes at 25° C. KF-DNBS (25 μM, 10% DMSO) was added to the samples followed by the measurement of fluorescence spectra under excitation at 420 nm at 37° C.

[4] = KF-DNBS 25 μM with HSA 100 μM, 2-FBBA 2 mM, SPB pH 7.4

HSA, sequence (P02768 25-609): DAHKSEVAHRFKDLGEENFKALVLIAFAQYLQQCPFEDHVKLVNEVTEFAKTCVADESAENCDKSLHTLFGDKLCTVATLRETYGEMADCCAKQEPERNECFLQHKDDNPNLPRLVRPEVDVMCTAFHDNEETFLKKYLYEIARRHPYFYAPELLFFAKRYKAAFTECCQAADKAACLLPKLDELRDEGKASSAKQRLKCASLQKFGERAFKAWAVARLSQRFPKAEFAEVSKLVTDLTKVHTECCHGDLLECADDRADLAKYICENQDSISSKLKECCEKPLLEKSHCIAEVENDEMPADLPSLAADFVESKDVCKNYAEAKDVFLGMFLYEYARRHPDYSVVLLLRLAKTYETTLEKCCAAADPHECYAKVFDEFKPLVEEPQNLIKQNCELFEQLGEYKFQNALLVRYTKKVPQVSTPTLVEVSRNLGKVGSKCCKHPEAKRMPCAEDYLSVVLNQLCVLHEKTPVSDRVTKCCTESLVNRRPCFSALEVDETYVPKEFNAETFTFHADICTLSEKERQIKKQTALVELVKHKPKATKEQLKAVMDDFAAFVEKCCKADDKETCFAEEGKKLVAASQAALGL

## CCN(CC)c1ccc(-c2cc3c(s2)c(-c2ccc(O)cc2)cc(=O)n3C)cc1 [KF, 2-(4-(diethylamino)phenyl)-7-(4-hydroxyphenyl)-4-methylthieno[3,2-b]pyridin-5(4H)-one]
HSA; 25 μM, 10% DMSO, HSA 100 μM
  fluorescence shift by addition of HSA: shifted slightly from 550 to 500
HSA
  HSA concentration range of linear fluorescence increase: 5 to 50 µM
other
  melting point: 250 to 251 °C

## CCN(CC)c1ccc(-c2cc3c(s2)c(-c2ccc(OS(=O)(=O)c4ccc([N+](=O)[O-])cc4[N+](=O)[O-])cc2)cc(=O)n3C)cc1 (as salt: benzenesulfonate) [KF-DNBS, 4-(2-(4-(diethylamino)phenyl)-4-methyl-5-oxo-4,5-dihydrothieno[3,2-b]pyridin-7-yl)phenyl 2,4-dinitrobenzenesulfonate]
other
  melting point: 96 to 98 °C

## CCN(CC)c1ccc(-c2cc3c(s2)c(-c2ccc(OS(=O)(=O)c4ccc([N+](=O)[O-])cc4[N+](=O)[O-])cc2)cc(=O)n3C)cc1 [KF-DNBS, 4-(2-(4-(diethylamino)phenyl)-4-methyl-5-oxo-4,5-dihydrothieno[3,2-b]pyridin-7-yl)phenyl 2,4-dinitrobenzenesulfonate]
HSA; 25 μM, 10% DMSO, HSA 100 μM
  fluorescence in the presence or absence of HSA: weak fluorescence
[1]; [4]
  H2S concentration range of linear fluorescence increase: 5 to 100 µM
  detection limit (3σ/slope) for H2S: 3.2 µM
[1]; KF-DNBS 25 μM, HSA 100 μM, 2-FBBA 2 mM, SPB pH 7.4, H2S added, 37° C.
  time for fluorescence intensity at 500 nm to reach the maximum value: ≤ 20 min
[1]; KF-DNBS with HSA, H2S 100 μM, pH 5 to pH 9, 20 mM
  H2S response in various buffer conditions: worked well
[2]; KF-DNBS 25 μM, HSA 100 μM, 2-FBBA 2 mM, SPB pH 7.4, 18 analytes
  fluorescence enhancement at 500 nm with various analytes: remarkable fluorescence enhancement was observed only for H2S
[2]; KF-DNBS with HSA and masking reagent 2-FBBA, biothiols, RSS, ROS, anions
  selectivity toward H2S: high selectivity
[3]; KF-DNBS 25 μM with HSA 100 μM, Cys 250 μM, Hcy 100 μM, without 2-FBBA
  fluorescence change induced by Cys and Hcy: noticeable fluorescence change
[3]; KF-DNBS 25 μM with HSA 100 μM, H2S 100 μM, SPB pH 7.4, without 2-FBBA
  fluorescence intensity at 500 nm on addition of H2S: increased significantly
[3]; KF-DNBS with HSA in the presence of 2-FBBA (2 mM)
  selectivity to H2S over other biothiols: superior selectivity

## 2-formyl benzene boronic acid [2-FBBA, reference compound]
[3]; 2-FBBA 2 mM, Cys 250 μM, Hcy 100 μM, HSA 100 μM
  masking of the reactivity of Cys and Hcy upon KF-DNBS: completely block
